Reference: patent US20230226036A1, “ARIMOCLOMOL FOR TREATING GAUCHER DISEASE” (ORPHAZYME A/S, priority 2020, published 2023)
“Also recorded” adds a separate entry of the source.

Tests used:
[1] = system: serum chitotriosidase activity; experiment: Serum chitotriosidase activity, phase 2 trial in Gaucher disease type 1 or 3 (primary endpoint); type: in vivo, human; settings: for Relative change in chitotriosidase activity from baseline versus placebo: 6 months, all dosage groups, significance not achieved (p=0.4), FIG. 2
Description: This is a placebo-controlled, randomised, double-blinded trial evaluating the response of 3 dose levels of arimoclomol on various pharmacodynamic (PD) biomarkers in blood and cerebrospinal fluid (CSF) as indicators of enhanced glucocerebrosidase (GBA) enzyme activity in GD1 and GD3.
(§1) Eligible GD1 and GD3 patients were randomised into 4 groups on a 1:1:1:1 basis to receive arimoclomol 300 mg/day, arimoclomol 600 mg/day, arimoclomol 1200 mg/day, or placebo treatment (3 times daily [t.i.d] dosing).
The primary efficacy endpoint of the trial was the percentage change in serum chitotriosidase activity (marker of macrophage activation) from baseline to 6 months, where baseline was defined as the mean value of the predose visits (Visit 1 and Visit 2).
The primary efficacy endpoint was analysed using an Analysis of Covariance (ANCOVA) model on the ITT population. The log of chitotriosidase activity was used in the analysis. The response variable for ANCOVA model was the log of chitotriosidase activity at 6 months, and the independent variables included IMP dose as randomized (300 mg/day, 600 mg/day, 1200 mg/day, and 0 mg/day [for placebo]) as a continuous variable, GD type, and log of baseline chitotriosidase. Supportive analysis was conducted using the same model but with the dose actually received at Visit 3 following possible dosing adjustment based on PK assessment at Visit 2.

[2] = system: liver size; experiment: Liver size by ultrasound, phase 2 trial in Gaucher disease type 1 or 3; type: in vivo, human; settings: 6 months, 300/600/1200 mg/day, dose-trend effect p<0.05, FIG. 3
Description: as §1
(§2) The imaging efficacy endpoint consisted of the change in the size (centimetres) of the liver and spleen (assessed by ultrasound) at 6 months and bi-annually until trial end. Clinical GD severity endpoints (all patients): • Gaucher disease Type 1 Disease Severity Scoring System (GD1-DS3) • Modified Severity Scoring Tool (mSST)
(§3) Secondary efficacy endpoints, including change in weight and height, change in liver size, change in spleen size, and change in biomarkers (blood and CSF) relative to baseline (where appropriate) were analysed using an ANCOVA model with treatment group (dose actually received at Visit 3 following possible dosing adjustment based on PK assessment at Visit 2, or placebo) and corresponding baseline value as covariate. For the biomarker analysis, appropriate data transformation was conducted before statistical analysis, if necessary.

[3] = system: spleen size; experiment: Spleen size by ultrasound, phase 2 trial in Gaucher disease type 1 or 3; type: in vivo, human; settings: 6 months, 300/600/1200 mg/day, dose trend analysis p<0.10, FIG. 4
Description: as §1, §2, §3

[4] = system: glycosylsphingosine (lyso-Gb1); experiment: Plasma glycosylsphingosine (lyso-Gb1), phase 2 trial in Gaucher disease; type: in vivo, human; settings: after 6 months, statistical significance not achieved, FIG. 6
Description: as §1
(§4) The exploratory biomarker endpoints, as measured in the blood, included: • Change* in plasma glucosylsphingosine (GlcSph) levels at 6 months and every 6 months until trial end. • Change* in haemoglobin, ferritin, and platelet levels at 6 months and every 6 months until trial end. • Change* in GBA enzyme activity (leukocytes) at 6 months and every 6 months until trial end. • Change* in serum macrophage inflammatory protein-1b (MIP-1P; cytokine for bone involvement) at 6 months and every 6 months until trial end.
as §3

[5] = system: Gaucher's disease type 1; experiment: Clinical GD1 severity score (GD1-DS3), phase 2 trial in Gaucher disease; type: in vivo, human; settings: 6 months, statistical significance not achieved
Description: Eligible GD1 and GD3 patients were randomised into 4 groups on a 1:1:1:1 basis to receive arimoclomol 300 mg/day, arimoclomol 600 mg/day, arimoclomol 1200 mg/day, or placebo treatment (3 times daily [t.i.d] dosing). The imaging efficacy endpoint consisted of the change in the size (centimetres) of the liver and spleen (assessed by ultrasound) at 6 months and bi-annually until trial end. Clinical GD severity endpoints (all patients): • Gaucher disease Type 1 Disease Severity Scoring System (GD1-DS3) • Modified Severity Scoring Tool (mSST)

[6] = system: haemoglobin; experiment: Haemoglobin in patients anaemic at baseline, phase 2 trial in Gaucher disease; type: in vivo, human; settings: highest dose group (1200 mg/day), time-trend analysis p<0.05, FIG. 5
Description: as §1, §4, §3

[7] = background statement; cited from earlier work
[8] = Plasma exposure (AUC0-8) estimated by population PK modelling in GD1/GD3 patients; type: in vivo, human; settings: 300, 600, 1200 mg/day t.i.d. oral (weight-adjusted), FIG. 1
Excerpt: All patients underwent an arimoclomol single-dose (100-mg single dose for the 300-mg/day treatment group, 200-mg single dose for the arimoclomol 600-mg/day treatment group, 400-mg single dose for the arimoclomol 1200-mg/day treatment group, or corresponding dose per kg for paediatric patients prior to the effective date of this protocol. Single dose pharmacokinetics (PK) was done with corresponding dose per kg for all patients randomised after the effective date of this protocol) pharmacokinetic (PK) evaluation at Visit 2 following randomization to confirm the suitability (in terms of target investigational medicinal product (AUC0-8—area under the curve [AUC] from time 0 to 8 hours [AUC0-8]) of the selected doses in the trial. Following the single dose, blood samples for PK analysis were collected at predose, and 0.5, 1, 2, 4, and 8 hours postdose. […] The corresponding data was evaluated by an independent assessor to verify the AUC0-8. […]
In the event that the AUC was above the target, or an unexpected profile which could potentially impact the safety of the patient was obtained, and the patient required a dose reduction, the patient was dispensed a reduced dose of IMP (blinded) at Visit 3. […] Additional blood samples for quantitative population PK analysis of arimoclomol were collected predose and at 0.5 hours postdose at Visit 5, and predose and 1.5 hours postdose at Visit 7. […]

[O-][n+]1cccc(/C(Cl)=N/OC[C@H](O)CN2CCCCC2)c1 [arimoclomol, (+)-(R)—N-[2-hydroxy-3-(1-piperidinyl)-propoxy]-pyridine-1-oxide-3-carboximidoyl chloride]
Relative change in chitotriosidase activity from baseline versus placebo [1]: relative reduction in chitotriosidase activity from baseline
Relative change in chitotriosidase activity from baseline versus placebo ([1]; listed as Arimoclomol): relative reduction in serum chitotriosidase activity
Change in chitotriosidase activity across treatment groups ([1]; baseline to 6 months, 300/600/1200 mg/day vs. placebo): lower increase in arimoclomol groups vs. placebo
Liver size relative to placebo [2]: dose-dependent effect; also recorded: Clinically meaningful dose-dependent reductions
Spleen size relative to placebo [3]: dose-dependent effect; also recorded: Clinically meaningful dose-dependent reductions
Change from baseline of plasma glycosylsphingosine (lyso-Gb1) [4]: trend towards a dose-dependent increase
Clinical GD1 severity score [5]: directional dose-dependent reduction
Haemoglobin over time [6]: time-dependent increase in haemoglobin
Blood-brain barrier passage [7]: ability to cross the blood-brain barrier
Plasma exposure (AUC) [8]: dose-dependent increase in plasma exposure
